Procollagen-I data for four molecules are collected here from patent US6423325B1, “Skin care composition” (Conopco, Inc., priority 1999, dated 2002).

The assay deals with procollagen-I synthesis in human dermal fibroblasts. The experiment in a line: Dot blot assay for procollagen-I protein in dermal fibroblast conditioned medium. In kind it is cell-based. The conditions noted are these: 24 hours, primary human foreskin fibroblasts, relative to vehicle treated control value of 100. As for the experimental part: Primary human foreskin fibroblasts at passage 2 (P2) were seeded into 12-well plates at 10000 cells/cm^2 and maintained for 24 hours in an atmosphere of 5% carbon dioxide and 4% oxygen in Dulbeccos Modified Eagles Medium (DMEM) supplemented with 10% foetal calf serum. After this time the cells were washed with serum free DMEM and then incubated in fresh serum free DMEM for a further 60 hours. The fibroblast monolayers were then washed again with serum free DMEM. Test reagents and vehicle controls were added to the cells in triplicate in a final volume of 0.4 ml/well fresh serum free DMEM and incubated for a further 24 hours.
This fibroblast conditioned medium was either analysed immediately or snap frozen in liquid nitrogen and stored at −70° C. for future analysis. The cells were then counted and data from the dot-blot analysis subsequently standardised to cell number.
Samples of conditioned medium from dermal fibroblasts treated with vehicle (as a control) or test reagents were supplemented with 20 mM dithiothreitol (1:10 dilution of 200 mM stock solution) and 0.1% sodium dodecylsulphate (1:100 dilution of 10% stock solution), mixed well and then incubated at 75° C. for 2 minutes.
A standard for the assay was generated by serial dilution of neat fibroblast conditioned medium from fibroblasts seeded at 10000 cells/cm^2 in a 175 cm^2 flask and maintained in serum free DMEM as described above. Assay samples were subsequently applied in triplicate to a prewetted sheet of Immobilon-P transfer membrane using the 96-well Bio-Dot Apparatus from Bio-Rad as described in the manufacturers guidelines. Approximately 200 μl of medium was applied per well. The medium was allowed to filter through the membrane under gravity (30 minutes) after which the membrane was washed twice with PBS (200 μl). These PBS washes were allowed to filter through the membrane under gravity (2×15 minutes).
The Bio-Dot apparatus was then attached to a vacuum manifold and a third and final PBS wash carried out under suction. The apparatus was disassembled, the membrane removed and quickly cut as required before being placed in blocking buffer overnight at 4° C. Membranes prepared for procollagen-I analysis were blocked with 5% (w/v) non-fat dried milk powder/0.05% Tween 20 in PBS. The following day, the membranes were probed with 1:10000 dilution of primary antibodies to human procollagen-I (MAB1912; rat monoclonal; Chemicon Int. Inc., Temecula, Calif.) for 2 hours at room temperature. The membranes were subsequently washed with TBS/0.05% Tween 20 (3×5 minutes) and then incubated with 1:1000 dilution of ^125I-conjugated anti-rat fragments (Amersham) as required for 1 hour at room temperature. Following this the Immobilon strips were again washed with TBS/Tween 20 (3×5 minutes) before being allowed to dry in air at room temperature.
The dried membranes were wrapped in cellophane and exposed to a Molecular Dynamics storage phosphor screen for 16-18 hours. […] Dot intensity was assessed by computer-assisted image analysis using the quantification tools in ImageQuant™, standardised to cell number and the effects of various test reagents procollagen-I synthesis were determined relative to a vehicle treated control value of 100 arbitrary units.
In order to normalise the results the effects of the test substances were determined relative to a vehicle treated control value of 100 arbitrary units. […]

The structures appear in SMILES notation. “And” between values parts separate entries of the source, which are not always exact repeats. Equal values may be shown once.

As to `CC/C=C\C/C=C\C/C=C\C/C=C\C/C=C\C/C=C\CCC(=O)O` [DHA, Docosahexaenoic acid], for the setting “10 μM”, the Procollagen-I is reported as 105.1 arbitrary units. `CCCCCCCCCCC/C=C\CCCCC(=O)O` [PA, Petroselinic acid]: the Procollagen-I (1 μM) is reported as 87.6 arbitrary units. Take `CCCCC/C=C\C/C=C\CCCCCCCC(=O)O` [linoleic acid]: the Procollagen-I runs as follows: (1 μM) 99.3 arbitrary units; (10 μM) 111.8 arbitrary units and 110.3 arbitrary units. With `CCCCCCCC/C=C\CCCCCCCC(=O)O` [oleic acid, reference compound], the Procollagen-I (10 μM) stood at 102.6 arbitrary units.
